Laboratory results from patent US20160282364A1, “ASSAY FOR INSULIN-DEGRADING ENZYME (IDE) INHIBITORS” (PRESIDENT AND FELLOWS OF HARVARD COLLEGE, priority 2013, published 2016).

Legend:
IDE (R&D) = IDE (R&D) (Homo sapiens, UniProt P14735); assay: Homogeneous time-resolved fluorescence (HTRF) insulin degradation assay; type: biochemical; parameters: recombinant human IDE42-1019 (R&D Systems); purchased R&D
Procedure: All data points and error bars represent mean±SEM. Significance tests were performed using two-tail Student's t-test, and significance levels shown in the figures are p<0.05 (*) or p<0.01 (**) versus the vehicle-only control group. The in vitro selection of the DNA-templated macrocycle libraryl^16,17 used 20 μg His6-tagged mouse IDE immobilized on cobalt magnetic beads (Dynabeads, Invitrogen). IDE proteolytic activity was assayed with fluorogenic peptide Mca-[…](Dnp)-OH (R&D). IDE inhibition was confirmed using an anti-insulin antibody time-resolved FRET assay (Cysbio), and using an LCMS assay for CGRP cleavage fragments CGRP1-17 and CGRP18-37 in plasma^18. […] IDE degradation assays for insulin and calcitonin-gene related peptide (CGRP). […] Fluorescence was measured using a Tecan Safire 2 plate reader (excitation=320 nm, emission=665 and 620 nm, lag time=60 μs) according the assay manufacturer's recommendations. Degradation of CGRP by endogenous IDE in mouse plasma was analyzed by LC-MS for the formation of CGRP1-17 and CGRP18-37 as previously reported^6.

hIDE W199F = target: T1, hIDE W199F (Homo sapiens, UniProt P14735, W199F); assay: Small molecule-enzyme mutant complementation study; type: biochemical; conditions: W199F vs hIDE WT, batch 2
T1 construct: The reported N-His6-tagged human IDE42-1019 construct; made in house; host or cells: E. coli Rosetta 2 (DE3) pLysS
From the text: Protease assays with fluorogenic peptide substrates. […] All assay data points were obtained in duplicate.
Site-directed mutagenesis, expression, and purification of human IDE. The reported N-His6-tagged human IDE42-1019 construct was introduced in the expression plasmid pTrcHis-A (Invitrogen) using primers for uracil-specific excision reactions (USER) by Taq (NEB) and Pfu polymerases (PfuTurbo CX®, Agilent). The IDE gene was amplified with the primers 5′-[…]-dU-[…] and 5′-[…] G-dU-[…] (underlined sequences represent overhangs, and italics highlight the PCR priming sequence). Similarly, the pTrcHis-A vector was amplified for USER cloning with the primers 5′-[…] TGA-dU-[…] CCC and 5′-[…]-dU-[…]. Mutant IDE constructs were generated by amplifying the full vector construct with USER cloning primers introducing a mutant overhang (Table 5).
All PCR products were purified on microcentrifuge membrane columns (MinElute®, Qiagen) and quantified by UV absorbance (NanoDrop). Each fragment (0.2 pmol) was combined in a 10 μL reaction mixture containing 20 units DpnI (NEB), 0.75 units of USER mix (Endonuclease VIII and Uracil-DNA Glycosylase, NEB), 20 mM Tris-acetate, 50 mM potassium acetate, 10 mM magnesium acetate, 1 mM dithiothreitol at pH 7.9 (1× NEBuffer 4). The reactions were incubated at 37° C. for 45 min, followed by heating to 80° C. and slow cooling to 30° C. (0.2° C./s). The hybridized constructs were directly used for heat-shock transformation of chemically competent NEB turbo E. coli cells according to the manufacturer's instructions. Transformants were selected on carbenicillin LB agar, and isolated colonies were cultured overnight in 2 mL LB.
The plasmid was extracted using a microcentrifuge membrane column kit (Miniprep®, Qiagen), and the sequence of genes and vector junctions were confirmed by Sanger sequencing (Table 6). The plasmid constructs were transformed by heat-shock into chemically-competent expression strain Rosetta 2 (DE3) pLysS E. coli cells (EMD Millipore), and selected on carbenicillin/chloramphenicol LB agar. Cells transformed with IDE pTrcHis A constructs were cultured overnight at 37° C. in 2 XYT media (31 g in 1 L) containing 100 μg/mL ampicillin and 34 μg/mL chloramphenicol. Expression of His6-tagged IDE proteins was induced when the culture measured OD600 ˜0.6 by addition of isopropyl-β-D-1-thiogalactopyranoside (IPTG) to 1 mM final concentration, incubated overnight at 37° C., followed by centrifugation at 10,000 g for 30 min at 4° C.
Recombinant His6-tagged proteins were purified by Ni(II)-affinity chromatography (IMAC sepharose beads, GE Healthcare®) according to the manufacturer's instructions. The cell pellets were resuspended in pH 8.0 buffer containing 50 mM phosphate, 300 mM NaCl, 10 mM imidazole, 1% Triton X-100 and 1 mM tris(2-carboxyethyl)phosphine hydrochloride (TCEP), and were lysed by probe sonication for 4 min at 4° C., followed by clearing of cell debris by centrifugation at 10,000 g for 25 min at 4° C. The supernatant was incubated with Ni(II)-doped IMAC resin (2 mL) for 3 h at 4° C. The resin was washed twice with the cell resuspension/lysis buffer, and three times with pH 8.0 buffer containing 50 mM phosphate, 300 mM NaCl,50 mM imidazole and 1 mM TCEP. Elution was performed in 2 mL aliquots by raising the imidazole concentration to 250 mM and subsequently to 500 mM in the previous buffer. The fractions were combined and the buffer was exchanged to the recommended IDE buffer (R&D) using spin columns with 100 KDa molecular weight cut off membranes (Millipore). Protein yields were typically ˜10 μg/L, and >90% purity based on gel electrophoresis analysis (Coomassie stained).

T1 sequence (P14735 42-1019 W199F): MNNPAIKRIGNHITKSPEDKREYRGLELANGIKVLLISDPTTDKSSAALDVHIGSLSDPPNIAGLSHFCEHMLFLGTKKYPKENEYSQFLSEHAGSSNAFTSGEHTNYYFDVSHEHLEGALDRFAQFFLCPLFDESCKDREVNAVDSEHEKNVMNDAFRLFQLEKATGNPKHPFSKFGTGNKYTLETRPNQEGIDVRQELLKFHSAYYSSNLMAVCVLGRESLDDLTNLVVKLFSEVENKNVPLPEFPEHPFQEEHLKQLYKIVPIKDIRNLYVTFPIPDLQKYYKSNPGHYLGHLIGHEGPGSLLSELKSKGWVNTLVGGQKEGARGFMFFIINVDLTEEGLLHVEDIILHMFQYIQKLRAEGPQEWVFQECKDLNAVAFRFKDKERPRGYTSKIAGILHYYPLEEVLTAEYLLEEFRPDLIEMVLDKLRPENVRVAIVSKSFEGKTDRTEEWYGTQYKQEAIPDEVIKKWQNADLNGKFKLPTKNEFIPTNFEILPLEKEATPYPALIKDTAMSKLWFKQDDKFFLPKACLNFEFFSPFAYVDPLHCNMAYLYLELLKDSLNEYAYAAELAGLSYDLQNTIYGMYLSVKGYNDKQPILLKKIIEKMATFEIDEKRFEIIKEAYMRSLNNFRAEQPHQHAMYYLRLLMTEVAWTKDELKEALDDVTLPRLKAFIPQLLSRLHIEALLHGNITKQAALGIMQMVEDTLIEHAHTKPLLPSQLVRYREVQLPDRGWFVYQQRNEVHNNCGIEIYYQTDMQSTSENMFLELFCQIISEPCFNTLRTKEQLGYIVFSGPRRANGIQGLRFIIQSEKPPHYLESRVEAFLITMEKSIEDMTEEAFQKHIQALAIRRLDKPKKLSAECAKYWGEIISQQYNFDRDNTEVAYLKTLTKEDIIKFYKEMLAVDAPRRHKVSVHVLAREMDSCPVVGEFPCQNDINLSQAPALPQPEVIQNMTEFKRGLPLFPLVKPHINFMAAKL
IDE (R&D), sequence (P14735 42-1019): as the sequence (P14735 42-1019 W199F) above, with F158W counted along it

NC(=O)CCC1NC(=O)C=CC(=O)NC(C(N)=O)CCCCNC(=O)C(Cc2ccc(C(=O)c3ccccc3)cc2)NC(=O)C(CC2CCCCC2)NC1=O (centres unmarked) [Compound 6b]
inhibition of IDE proteolytic activity, insulin immunoassay (IDE (R&D)): confirmed
IC50 shift (hIDE W199F): 3.0 fold
